Measured values from PubChem BioAssay AID2060618 (Molecular Pharmacology Branch, DTP, NCI, 2025).

Tested on: 454973-116-R2-J3-PDC spheroids, percent test/control viability
Test: Anticancer human tumor 454973-116-R2-J3-PDC patient-derived pancreatic carcinoma cell line growth inhibition [CLK]
Settings: spheroids with HUVEC and MSC; for IC50: curve of first compound; for viability, T/C: stronger effect = lower value
Summary of the method: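 Multi-cell-type spheroids combined patient-derived tumor cells with HUVEC endothelial cells and human mesenchymal stem cells. Paired agents were dosed in half-log steps down from about clinical Cmax, or from 10 microM where Cmax was unknown.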

[1] = second compound 0.0316 µM, first compound 0.0316 µM
[2] = second compound 0.0316 µM, first compound 0.1 µM
[3] = second compound 0.0316 µM, first compound 0.316 µM
[4] = second compound 0.0316 µM, first compound 1 µM
[5] = second compound 0.1 µM, first compound 0.0316 µM
[6] = second compound 0.1 µM, first compound 0.1 µM
[7] = second compound 0.1 µM, first compound 0.316 µM
[8] = second compound 0.1 µM, first compound 1 µM
[9] = second compound 0.316 µM, first compound 0.0316 µM
[10] = second compound 0.316 µM, first compound 0.1 µM
[11] = second compound 0.316 µM, first compound 0.316 µM
[12] = second compound 0.316 µM, first compound 1 µM
[13] = second compound 1 µM, first compound 0.0316 µM
[14] = second compound 1 µM, first compound 0.1 µM
[15] = second compound 1 µM, first compound 0.316 µM
[16] = second compound 1 µM, first compound 1 µM
[17] = second compound 3.16 µM, first compound 0.0316 µM
[18] = second compound 3.16 µM, first compound 0.1 µM
[19] = second compound 3.16 µM, first compound 0.316 µM
[20] = second compound 3.16 µM, first compound 1 µM
[21] = second compound 10 µM, first compound 0.0316 µM
[22] = second compound 10 µM, first compound 0.1 µM
[23] = second compound 10 µM, first compound 0.316 µM
[24] = second compound 10 µM, first compound 1 µM
[25] = second compound 0.0316 µM, first compound 0.00316 µM
[26] = second compound 0.0316 µM, first compound 0.01 µM
[27] = second compound 0.1 µM, first compound 0.00316 µM
[28] = second compound 0.1 µM, first compound 0.01 µM
[29] = second compound 0.316 µM, first compound 0.00316 µM
[30] = second compound 0.316 µM, first compound 0.01 µM
[31] = second compound 1 µM, first compound 0.00316 µM
[32] = second compound 1 µM, first compound 0.01 µM
[33] = second compound 3.16 µM, first compound 0.00316 µM
[34] = second compound 3.16 µM, first compound 0.01 µM
[35] = second compound 10 µM, first compound 0.00316 µM
[36] = second compound 10 µM, first compound 0.01 µM
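Also: spheroids exposed to compounds for 7 days before readout.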

## CC(Nc1ccc2c(c1)OCCn1cc(N3C(=O)OCC3C(F)F)nc1-2)C(N)=O (stereo unspecified) + CN1CCN(c2cc(C(=O)Nc3cc4cc(-c5cnn(C)c5)ccc4cn3)ccn2)CC1
Second compound 0.0316 µM
  IC50: > 10000 nM
Second compound 0.1 µM
  IC50: 332 nM
Second compound 0.316 µM
  IC50: < 31.6 nM
Second compound 1 µM
  IC50: < 31.6 nM
Second compound 3.16 µM
  IC50: < 31.6 nM
Second compound 10 µM
  IC50: < 31.6 nM
[1]
  viability, T/C: 91.9%
[2]
  viability, T/C: 82.3%
[3]
  viability, T/C: 81.4%
[4]
  viability, T/C: 68.3%
Second compound 0.0316 µM, first compound 3.16 µM
  viability, T/C: 64.8%
Second compound 0.0316 µM, first compound 10 µM
  viability, T/C: 53.1%
[5]
  viability, T/C: 67.4%
[6]
  viability, T/C: 60.2%
[7]
  viability, T/C: 49.9%
[8]
  viability, T/C: 41.8%
Second compound 0.1 µM, first compound 3.16 µM
  viability, T/C: 34%
Second compound 0.1 µM, first compound 10 µM
  viability, T/C: 30.2%
[9]
  viability, T/C: 1.28%
[10]
  viability, T/C: 1.34%
[11]
  viability, T/C: 0.74%
[12]
  viability, T/C: 0.59%
Second compound 0.316 µM, first compound 3.16 µM
  viability, T/C: 1.78%
Second compound 0.316 µM, first compound 10 µM
  viability, T/C: 0.43%
[13]
  viability, T/C: 0.08%
[14]
  viability, T/C: 0.11%
[15]
  viability, T/C: 3.02%
[16]
  viability, T/C: 0.1%
Second compound 1 µM, first compound 3.16 µM
  viability, T/C: 0.88%
Second compound 1 µM, first compound 10 µM
  viability, T/C: 0.07%
[17]
  viability, T/C: 0.11%
[18]
  viability, T/C: 0.14%
[19]
  viability, T/C: 0.15%
[20]
  viability, T/C: 0.13%
Second compound 3.16 µM, first compound 3.16 µM
  viability, T/C: 0.13%
Second compound 3.16 µM, first compound 10 µM
  viability, T/C: 0.38%
[21]
  viability, T/C: 3.01%
[22]
  viability, T/C: 0.2%
[23]
  viability, T/C: 0.2%
[24]
  viability, T/C: 0.22%
Second compound 10 µM, first compound 3.16 µM
  viability, T/C: 0.21%
Second compound 10 µM, first compound 10 µM
  viability, T/C: 0.23%

## CCN1CCN(Cc2ccc(Nc3ncc(F)c(-c4cc(F)c5nc(C)n(C(C)C)c5c4)n3)nc2)CC1 + CN1CCN(c2cc(C(=O)Nc3cc4cc(-c5cnn(C)c5)ccc4cn3)ccn2)CC1
Second compound 0.0316 µM
  IC50: > 1000 nM
Second compound 0.1 µM
  IC50: > 1000 nM
Second compound 0.316 µM
  IC50: < 3.16 nM
Second compound 1 µM
  IC50: < 3.16 nM
Second compound 3.16 µM
  IC50: < 3.16 nM
Second compound 10 µM
  IC50: < 3.16 nM
[25]
  viability, T/C: 90.9%
[26]
  viability, T/C: 93.5%
[1]
  viability, T/C: 78.7%
[2]
  viability, T/C: 79.1%
[3]
  viability, T/C: 71%
[4]
  viability, T/C: 62.2%
[27]
  viability, T/C: 77.8%
[28]
  viability, T/C: 78.5%
[5]
  viability, T/C: 70.6%
[6]
  viability, T/C: 81.2%
[7]
  viability, T/C: 63.5%
[8]
  viability, T/C: 66.9%
[29]
  viability, T/C: 2.22%
[30]
  viability, T/C: 3.67%
[9]
  viability, T/C: 6.55%
[10]
  viability, T/C: 7.25%
[11]
  viability, T/C: 24.6%
[12]
  viability, T/C: 13.8%
[31]
  viability, T/C: 0.14%
[32]
  viability, T/C: 1.49%
[13]
  viability, T/C: 2.77%
[14]
  viability, T/C: 0.19%
[15]
  viability, T/C: 0.21%
[16]
  viability, T/C: 0.24%
[33]
  viability, T/C: 0.15%
[34]
  viability, T/C: 0.31%
[17]
  viability, T/C: 0.58%
[18]
  viability, T/C: 0.16%
[19]
  viability, T/C: 0.2%
[20]
  viability, T/C: 0.28%
[35]
  viability, T/C: 0.13%
[36]
  viability, T/C: 0.22%
[21]
  viability, T/C: 0.24%
[22]
  viability, T/C: 0.42%
[23]
  viability, T/C: 0.21%
[24]
  viability, T/C: 3.78%

## COc1c(OCCCN2CCOCC2)ccc2c3n(c(=NC(=O)c4cnc(N)nc4)nc12)CCN3 + CN1CCN(c2cc(C(=O)Nc3cc4cc(-c5cnn(C)c5)ccc4cn3)ccn2)CC1
Second compound 0.0316 µM
  IC50: 95.1 nM
Second compound 0.1 µM
  IC50: 21.7 nM
Second compound 0.316 µM
  IC50: < 3.16 nM
Second compound 1 µM
  IC50: < 3.16 nM
Second compound 3.16 µM
  IC50: < 3.16 nM
Second compound 10 µM
  IC50: < 3.16 nM
[25]
  viability, T/C: 83.4%
[26]
  viability, T/C: 84.3%
[1]
  viability, T/C: 77.2%
[2]
  viability, T/C: 46.6%
[3]
  viability, T/C: 21.7%
[4]
  viability, T/C: 6.87%
[27]
  viability, T/C: 65.2%
[28]
  viability, T/C: 63.8%
[5]
  viability, T/C: 43.4%
[6]
  viability, T/C: 18.1%
[7]
  viability, T/C: 9.33%
[8]
  viability, T/C: 4.74%
[29]
  viability, T/C: 1.28%
[30]
  viability, T/C: 0.96%
[9]
  viability, T/C: 1.21%
[10]
  viability, T/C: 1.68%
[11]
  viability, T/C: 0.41%
[12]
  viability, T/C: 0.17%
[31]
  viability, T/C: 0.15%
[32]
  viability, T/C: 0.11%
[13]
  viability, T/C: 0.55%
[14]
  viability, T/C: 0.06%
[15]
  viability, T/C: 1.84%
[16]
  viability, T/C: 1.26%
[33]
  viability, T/C: 0.21%
[34]
  viability, T/C: 0.99%
[17]
  viability, T/C: 2.18%
[18]
  viability, T/C: 0.08%
[19]
  viability, T/C: 1.65%
[20]
  viability, T/C: 0.11%
[35]
  viability, T/C: 0.1%
[36]
  viability, T/C: 1.86%
[21]
  viability, T/C: 0.15%
[22]
  viability, T/C: 0.42%
[23]
  viability, T/C: 0.43%
[24]
  viability, T/C: 0.62%
